Series [1] addresses T1, full-length beta-Catenin (Uniprot ID P35222) (Homo sapiens, UniProt P35222).
T1 construct: 10 nM full-length beta-Catenin (Uniprot ID P35222)
T1 sequence (P35222 1-781): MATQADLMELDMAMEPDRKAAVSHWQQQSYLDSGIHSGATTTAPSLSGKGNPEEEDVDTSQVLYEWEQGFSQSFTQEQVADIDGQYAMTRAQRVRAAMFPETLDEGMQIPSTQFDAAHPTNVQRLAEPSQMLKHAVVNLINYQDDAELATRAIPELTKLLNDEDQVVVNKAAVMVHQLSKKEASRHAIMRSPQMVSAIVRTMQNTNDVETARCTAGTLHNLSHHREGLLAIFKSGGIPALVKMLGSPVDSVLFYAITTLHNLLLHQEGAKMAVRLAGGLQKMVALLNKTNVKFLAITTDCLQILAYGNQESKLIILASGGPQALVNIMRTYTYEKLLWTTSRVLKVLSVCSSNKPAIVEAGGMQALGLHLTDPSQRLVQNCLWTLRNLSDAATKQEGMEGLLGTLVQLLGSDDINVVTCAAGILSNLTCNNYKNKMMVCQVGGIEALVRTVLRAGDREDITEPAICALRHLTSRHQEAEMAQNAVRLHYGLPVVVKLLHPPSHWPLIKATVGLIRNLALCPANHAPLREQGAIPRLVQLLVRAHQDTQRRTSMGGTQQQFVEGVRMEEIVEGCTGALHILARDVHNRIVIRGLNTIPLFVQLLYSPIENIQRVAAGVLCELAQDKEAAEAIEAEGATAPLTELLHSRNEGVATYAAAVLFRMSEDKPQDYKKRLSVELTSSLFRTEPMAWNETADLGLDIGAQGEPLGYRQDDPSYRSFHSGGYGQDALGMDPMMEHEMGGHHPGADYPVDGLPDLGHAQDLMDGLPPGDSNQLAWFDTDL
In words: Fluorescence polarization IC50 (beta-catenin / 5FAM-TCF4 10-53 competition). Type of series: binding. For orientation: Polarisation of emitted light reports the rotation of a fluorescent probe.

Another series can be described thus: CHI Log D procedure. Type of series: physicochemical. The note with it: pH 7.4.
Another series is described as follows: Solubility in PBS. Type of series: physicochemical. An outline of the steps:
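Read-out is the HPLC peak area of the supernatant from ultracentrifuged PBS solution, scaled against a 50 μM peptide DMSO injection; value reported as [(PBS area)/(DMSO area)]*50 uM.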

Series [2] has as its target T2, beta-catenin/TCF4 engagement (Homo sapiens, UniProt P35222).
T2 construct: expressed in transfected cells; host or cells: HEK293
T2 sequence (P35222 1-781): T1 sequence (P35222 1-781)
Briefly: Nano-BRET target engagement assay (B-cat-Halo & TCF4-Luc in HEK293 cells). Type of series: cell-based. The following applies: for IC50: absolute IC50, read-out: NanoBRET Abs IC50. (In general: BRET reads energy transfer from a luciferase to a nearby fluorophore.)

Setting [3] is: fluorescence polarization, read-out: beta-Catenin FP IC50.

≈ marks a conversion by molar mass, not a printed value. Read-outs that look alike come from different tables or passages of the source.

The Solubility is how much of the substance goes into solution per volume. Low readings indicate little dissolved substance, high ones much dissolved substance.

As for `CC(=O)N1CCC[C@]12CC=CCCCC1(CCCC=CCCCCCC[C@@](C)(C(=O)N[C@@H](Cc3ccsc3)C(=O)N[C@@H](Cc3csc4ccccc34)C(=O)N[C@@H](CCC(N)=O)C(N)=O)NC(=O)[C@H](CC(N)=O)NC(=O)[C@H](Cc3ccccc3)NC(=O)[C@H](C)NC(=O)[C@H](C)NC(=O)[C@H](CC(=O)O)NC(=O)[C@H](CC(=O)O)NC1=O)NC(=O)[C@H](CC(C)(C)C)NC(=O)[C@H](CC(=O)O)NC2=O` (stereo partly drawn) [I-678, Ac-PL3-Asp-Npg-B5-Asp-Asp-Ala-Ala-Phe-Asn-S8-3Thi-BztA-Gln-NH2], the IC50 in series [1] (setting [3]) is 0.026 µM; in series [1] (read-out: FP EC50), 0.026 µM; in series [2], 16.8 µM. In addition, the “CHI Log D” value in the series “CHI Log D procedure” is reported as 2.329. For the same molecule, the “Solubility” value in the series “Solubility in PBS” was 49 µM (≈ 91.9 µg/mL).
On to `CC(=O)N1CCC[C@]12CC=CCCCC1(CCCC=CCCCCCC[C@@](C)(C(=O)N[C@@H](Cc3ccsc3)C(=O)N[C@@H](Cc3csc4ccccc34)C(=O)N[C@@H](CCC(N)=O)C(N)=O)NC(=O)[C@H](CC(N)=O)NC(=O)[C@H](Cc3ccccc3)NC(=O)[C@H](C)NC(=O)[C@H](C)NC(=O)[C@H](CC(=O)O)NC(=O)[C@H](CC(=O)O)NC1=O)NC(=O)[C@H](CC(C)(C)C)NC(=O)[C@H](CC(=O)O)NC2=O` (stereo partly drawn) [I-679, Ac-PL3-Asp-Npg-B5-Asp-Asp-Ala-Ala-Phe-Asn-S8-3Thi-BztA-Gln-NH2], for which the IC50 in series [1] (setting [3]) amounted to 0.007 µM; in series [1] (read-out: FP EC50), 0.007 µM; in series [2], 17.1 µM. Also, the “CHI Log D” value in the series “CHI Log D procedure” was 2.382. For the same molecule, the “Solubility” value in “Solubility in PBS” came out at 48 µM (≈ 90 µg/mL). Besides, the inhibition at 10 µM in series [2] (HEK293, @ 10 uM, read-out: NanoBRET % inh @ 10 uM) amounted to 44.8%.
In the case of `CC(=O)N1CCC[C@]12CC=CCCCC1(CCCC=CCCCCCC[C@@](C)(C(=O)N[C@@H](Cc3ccsc3)C(=O)N[C@@H](Cc3csc4ccccc34)C(=O)N[C@@H](CCC(N)=O)C(N)=O)NC(=O)[C@H](CC(N)=O)NC(=O)[C@H](Cc3ccccc3)NC(=O)[C@H](C)NC(=O)[C@H](C)NC(=O)[C@H](CC(=O)O)NC(=O)[C@H](CC(=O)O)NC1=O)NC(=O)[C@H](CC(C)C)NC(=O)[C@H](CC(=O)O)NC2=O` (stereo partly drawn) [I-680, Ac-PL3-Asp-Leu-B5-Asp-Asp-Ala-Ala-Phe-Asn-S8-3Thi-BztA-Gln-NH2], the IC50 in series [1] (setting [3]) is 0.032 µM; in series [1] (read-out: FP EC50), 0.032 µM; in series [2], 34.4 µM. In the series “CHI Log D procedure”, the “CHI Log D” value was found to be 2.215. Besides, the “Solubility” value in “Solubility in PBS” was found to be 47 µM (≈ 87.5 µg/mL).
On to `CC(=O)N1CCC[C@]12CC=CCCCC1(CCCC=CCCCCCC[C@@](C)(C(=O)N[C@@H](Cc3ccsc3)C(=O)N[C@@H](Cc3csc4ccccc34)C(=O)N[C@@H](CCC(N)=O)C(N)=O)NC(=O)[C@H](CC(N)=O)NC(=O)[C@H](Cc3ccccc3)NC(=O)[C@H](C)NC(=O)[C@H](C)NC(=O)[C@H](CC(=O)O)NC(=O)[C@H](CC(=O)O)NC1=O)NC(=O)[C@H](CC(C)C)NC(=O)[C@H](CC(=O)O)NC2=O` (stereo partly drawn) [I-681, Ac-PL3-Asp-Leu-B5-Asp-Asp-Ala-Ala-Phe-Asn-S8-3Thi-BztA-Gln-NH2], for which the values for the IC50 in series [1] (setting [3]), in series [1] (read-out: FP EC50) and in series [2] were 0.012 µM, 0.012 µM and 25.1 µM, respectively. The “CHI Log D” value in the series “CHI Log D procedure” was 2.273. For the same molecule, in the series “Solubility in PBS”, the “Solubility” value was determined as 48 µM (≈ 89.3 µg/mL).
In the case of `CC(=O)N1CCC[C@]12CC=CCCCC1(CCCC=CCCCCCC[C@@](C)(C(=O)N[C@@H](Cc3ccsc3)C(=O)N[C@@H](Cc3csc4ccccc34)C(=O)N[C@@H](CCC(N)=O)C(N)=O)NC(=O)[C@H](CC(N)=O)NC(=O)[C@H](Cc3ccccc3)NC(=O)[C@H](C)NC(=O)[C@H](C)NC(=O)[C@H](CCC(=O)O)NC(=O)[C@H](CC(=O)O)NC1=O)NC(=O)[C@H](CC(C)(C)C)NC(=O)[C@H](CC(=O)O)NC2=O` (stereo partly drawn) [I-683, Ac-PL3-Asp-Npg-B5-Asp-Glu-Ala-Ala-Phe-Asn-S8-3Thi-BztA-Gln-NH2], the IC50 in series [1] (setting [3]) was 0.019 µM; in series [1] (read-out: FP EC50) it was 0.019 µM; in series [2], 6.7 µM. Besides, in the series “CHI Log D procedure”, the “CHI Log D” value was found to be 2.44. Also, in “Solubility in PBS”, the “Solubility” value amounted to 37 µM (≈ 69.9 µg/mL).
